Test results published in patent US20250313563A1, “GLYCOGEN SYNTHASE KINASE 3 INHIBITORS AND USES THEREOF” (The Broad Institute, Inc., priority 2022, published 2025).
Read-outs that look alike come from different tables or passages of the source.

Assays:
[1] = biological target: GSK3α (GST-full length GSK3α) (Homo sapiens (Human), UniProt P49840); assay: GSK3α TR-FRET kinase assay; format: biochemical
Procedure, shortened: (§1)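 Readout: anti-pSer641 Tb antibody/streptavidin-d2 signal after 60 min, expressed as 665/615 ratio and fitted versus log concentration for IC50. Enzyme: 1 nM GST-GSK3 (α or β), compound-preincubated 30 min. Conditions: pH 7.5 Tris buffer with MgCl2, DTT, BSA; ATP at 4 or 2 μM, or 1 mM; 100 min.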

[2] = biological target: GSK3b (GST-full length GSK3b) (Homo sapiens (Human), UniProt P49841); assay: GSK3b TR-FRET kinase assay; format: biochemical
Sequence of GSK3b (GST-full length GSK3b) (P49841 whole entry): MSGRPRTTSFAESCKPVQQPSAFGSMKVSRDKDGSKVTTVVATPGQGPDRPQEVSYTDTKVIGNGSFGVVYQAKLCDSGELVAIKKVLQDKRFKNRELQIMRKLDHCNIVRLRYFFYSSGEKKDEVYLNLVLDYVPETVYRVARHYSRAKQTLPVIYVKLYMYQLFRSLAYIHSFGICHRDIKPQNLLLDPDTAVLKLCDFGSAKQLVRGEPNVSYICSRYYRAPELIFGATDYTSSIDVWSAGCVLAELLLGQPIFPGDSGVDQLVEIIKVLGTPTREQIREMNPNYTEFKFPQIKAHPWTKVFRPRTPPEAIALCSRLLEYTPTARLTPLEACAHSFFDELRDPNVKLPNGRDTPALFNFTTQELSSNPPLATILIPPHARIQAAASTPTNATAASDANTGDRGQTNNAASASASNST
Procedure, shortened: as §1

[3] = 1 nM GSK3α, 4 μM ATP, 30 minute preincubation, read-out: GSK3-A TR-FRET BIOCHEMICAL (TR-FRET), IC50
[4] = 1 nM GSK3b, 2 μM ATP, 30 minute preincubation, read-out: GSK3-B TR-FRET BIOCHEMICAL (TR-FRET), IC50
[5] = read-out: GSK3-A (TR-FRET 1 mM ATP), GMean, IC50, 1 mM ATP, geometric mean
[6] = read-out: GSK3-B (TR-FRET 1 mM ATP), GMean, IC50, 1 mM ATP, geometric mean
[7] = 1 nM GSK3α, 4 μM ATP, 30 minute preincubation, Table 16, read-out: GSK3-A TR-FRET BIOCHEMICAL (TR-FRET), IC50
[8] = 1 nM GSK3b, 2 μM ATP, 30 minute preincubation, Table 16, read-out: GSK3-B TR-FRET BIOCHEMICAL (TR-FRET), IC50
[9] = 1 nM GSK3α, 4 μM ATP, 30 minute preincubation, Table 16, read-out: GSK3-A TR-FRET BIOCHEMICAL (TR-FRET)
[10] = 1 nM GSK3b, 2 μM ATP, 30 minute preincubation, Table 16, read-out: GSK3-B TR-FRET BIOCHEMICAL (TR-FRET)

Sequence of GSK3α (GST-full length GSK3α) (P49840 whole entry): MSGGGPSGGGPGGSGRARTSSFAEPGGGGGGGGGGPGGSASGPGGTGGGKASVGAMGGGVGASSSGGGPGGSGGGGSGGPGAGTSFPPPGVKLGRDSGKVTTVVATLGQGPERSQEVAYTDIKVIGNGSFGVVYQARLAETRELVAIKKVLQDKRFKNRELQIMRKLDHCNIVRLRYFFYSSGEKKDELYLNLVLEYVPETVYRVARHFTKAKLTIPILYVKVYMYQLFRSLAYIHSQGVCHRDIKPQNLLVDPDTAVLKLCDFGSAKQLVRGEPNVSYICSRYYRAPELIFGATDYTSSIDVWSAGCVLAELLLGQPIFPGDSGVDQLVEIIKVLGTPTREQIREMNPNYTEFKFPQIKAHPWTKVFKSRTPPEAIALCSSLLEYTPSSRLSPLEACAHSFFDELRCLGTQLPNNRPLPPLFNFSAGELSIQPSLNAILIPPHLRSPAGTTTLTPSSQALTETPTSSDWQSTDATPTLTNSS

Compound	IC50 [1, 7] [nM]	IC50 [2, 8] [nM]	other results
CC(=O)N1CC2(C1)C[C@@]1(CO2)C2=C(CC(C)(C)CC2=O)Nc2n[nH]cc21 [Compound 926872]	–	–	IC50 [1, 3]: 100 to 1000 nM; IC50 [2, 4]: 100 to 1000 nM
CCC1(c2cccc(-c3ccnc(C)c3)c2)C2=C(CC(C)(C)NC2=O)Nc2n[nH]cc21 (stereo not drawn) [Compound 927325]	–	–	IC50 [1, 3]: ≤ 100 nM; IC50 [1, 5]: 100 to 1000 nM; IC50 [2, 4]: 100 to 1000 nM; IC50 [2, 6]: > 5000 nM
CCC1(c2cccc(-c3cc(C)ncc3F)c2)C2=C(CC(C)(C)CC2=O)Nc2n[nH]cc21 (stereo not drawn) [Compound 927339]	1000 to 5000	> 5000	–
CC[C@@]1(c2cccc(-c3ccnc(C)c3F)c2)C2=C(CC(C)(C)CC2=O)Nc2n[nH]c(C)c21 [Compound 927340]	> 5000	> 5000	–
CCC1(c2cccc(NS(C)(=O)=O)c2)C2=C(CC(C)(C)CC2=O)Nc2n[nH]cc21 (stereo not drawn) [Compound 927341]	1000 to 5000	1000 to 5000	–
CC1(C)CC(=O)C2=C(C1)Nc1n[nH]cc1C21CCCS(=O)(=O)CC1 (stereo not drawn) [Compound 927343]	–	–	IC50 [1, 9]: ≤ 100 nM; IC50 [2, 10]: 100 to 1000 nM
CC[C@]1(c2cccc(-c3ccnn3C)c2)C2=C(CC(C)(C)NC2=O)Nc2n[nH]cc21 [Compound 927390]	–	–	IC50 [1, 3]: 100 to 1000 nM; IC50 [2, 4]: > 5000 nM
CCC1(c2cccc(C(F)(F)F)c2)C2=C(CN(Cc3ccccc3)C2=O)Nc2n[nH]cc21 (stereo not drawn) [Compound 929388]	–	–	IC50 [1, 5]: 100 to 1000 nM; IC50 [2, 10]: 100 to 1000 nM; IC50 [2, 6]: > 5000 nM
CC1(C)CC(=O)C2=C(C1)Nc1n[nH]cc1C21CN(Cc2ccccc2)C1 [Compound 929436]	> 5000	> 5000	–
CC1(C)CC(=O)C2=C(C1)Nc1n[nH]cc1C21CCN(S(=O)(=O)Cc2ccccc2)CC1 [Compound 929437]	–	–	IC50 [1, 3]: ≤ 100 nM; IC50 ([1]; GSK3-A (TR-FRET 1 mM ATP), GMean, IC50, 1 mM ATP, geometric mean): ≤ 100 nM; IC50 [2, 4]: ≤ 100 nM; IC50 ([2]; GSK3-B (TR-FRET 1 mM ATP), GMean, IC50, 1 mM ATP, geometric mean): 100 to 1000 nM
CC1(C)CC(=O)C2=C(C1)Nc1n[nH]cc1C21CN(Cc2ccccn2)C1 [Compound 929438]	> 5000	> 5000	–
Cn1cc(CN2CC3(C2)C2=C(CC(C)(C)CC2=O)Nc2n[nH]cc23)cn1 [Compound 929439]	> 5000	> 5000	–
CC1(C)CC(=O)C2=C(C1)Nc1n[nH]cc1C21CN(S(=O)(=O)CC2CC2)C1 [Compound 929440]	–	–	IC50 [1, 9]: ≤ 100 nM; IC50 [2, 10]: ≤ 100 nM
CC1(C)CC(=O)C2=C(C1)Nc1n[nH]cc1C21CN(CCc2ccccc2)C1 [Compound 929441]	> 5000	> 5000	–
CC[C@]1(c2cccc(N(C)C(=O)c3ccn(C)n3)c2)C2=C(CC(C)(C)CC2=O)Nc2n[nH]cc21 [Compound 929442]	≤ 100	100 to 1000	–
CC[C@@]1(c2cccc(-c3ccnnc3)c2)C2=C(CC(C)(C)CC2=O)Nc2n[nH]cc21 [Compound 929443]	> 5000	> 5000	–
CCc1cc(-c2cccc(C3(CC)C4=C(CC(C)(C)CC4=O)Nc4n[nH]cc43)c2)cc(CC)n1 (stereo not drawn) [Compound 929445]	1000 to 5000	> 5000	–

Continued, in another order:

IC50 [1, 7] [nM]	IC50 [2, 8] [nM]	Compound	other results
≤ 100	≤ 100	CCC1(c2cccc(-c3ccnnc3)c2)C2=C(CC(C)(C)CC2=O)Nc2n[nH]cc21 (stereo not drawn) [Compound 927342]	–
≤ 100	≤ 100	CCC1(c2cccc(S(=O)(=O)C3CCOCC3)c2)C2=C(CC(C)(C)CC2=O)Nc2n[nH]cc21 (stereo not drawn) [Compound 927344]	–
≤ 100	≤ 100	CCC1(c2cccc(-c3cc(C)ncc3F)c2)C2=C(CC(C)(C)CC2=O)Nc2n[nH]cc21 (stereo not drawn) [Compound 927346]	IC50 [1, 5]: ≤ 100 nM; IC50 [2, 6]: 1000 to 5000 nM
≤ 100	≤ 100	CCC1(c2cccc(N(C)c3nccc(OC)n3)c2)C2=C(CC(C)(C)CC2=O)Nc2n[nH]cc21 (stereo not drawn) [Compound 929387]	–
≤ 100	≤ 100	CCn1nccc1-c1cccc(C2(CC)C3=C(CC(C)(C)CC3=O)Nc3n[nH]cc32)c1 (stereo not drawn) [Compound 929398]	–
≤ 100	≤ 100	CCC1(c2cccc(-c3ccnn3C(C)C)c2)C2=C(CC(C)(C)CC2=O)Nc2n[nH]cc21 (stereo not drawn) [Compound 929399]	–
≤ 100	≤ 100	CCC1(c2cccc(-c3ccnn3CCC(C)C)c2)C2=C(CC(C)(C)CC2=O)Nc2n[nH]cc21 (stereo not drawn) [Compound 929401]	–
≤ 100	100 to 1000	CCC1(c2cccc(-c3cc(C)nn3C)c2)C2=C(CC(C)(C)CC2=O)Nc2n[nH]cc21 (stereo not drawn) [Compound 929402]	–
